We go through 15 compounds from patent US4288596A, “Furoindoles” (priority 1978, dated 1981).

The structures appear in SMILES notation. Counter-ions that a name gives are not always drawn. Some results are limits rather than exact numbers.

Series [1] can be described thus: Analgesic effect by acetic acid writhing method. It counts as in vivo, mice of ddY strain. Conditions: Mus musculus, 20 min; oral, mice; 0.7% acetic acid i.p. 20 min after dosing; read-out: Analgesic action (ED50), Writhing method. How it is done: Test 1: ANALGESIC EFFECT BY ACETIC ACID WRITHING METHOD (Koster et al., Fed Proc., 18, 412 (1959))
Ten mice of ddY strain weighing 18-24 g were used in testing each compound. Twenty minutes after oral administration of test compounds, 0.1 ml/10 g of 0.7% acetic acid solution was injected intraperitoneally and the number of writhing syndromes was recorded for 10 minutes from 10 minutes after acetic acid injection. ED50 values were calculated from inhibition percent for each test compound.

A short description of series [2]: Analgesic effect by D'Amour-Smith's method. It counts as in vivo, mice of ddY strain. To be noted: Mus musculus; oral, mice; reaction time at 30, 60, 90 and 120 min; read-out: Analgesic action (ED50), D'Amour-Smith's method. Here is the method: Test 3: ANALGESIC EFFECT BY D'AMOUR-[…] METHOD (D'Amour et al., J. Pharmacol. Exp. Ther., 72, 74 (1941)) Ten mice of ddY strain weighing 18-24 g and showing reaction times of 2-5 seconds were used in testing each compound. The reaction time was measured at 30, 60, 90 and 120 minutes after oral administration of the test compounds and positive analgesic response was recorded when the reaction time was two or more times longer than pre-administration. ED50 values were calculated from the number of positive mice.

Series [3] is described as follows: Analgesic effect by tail pressure method. Conditions: Mus musculus; oral, mice; pain threshold at 30, 60, 90 and 120 min; read-out: Analgesic action (ED50), Tail pressure method. The format is in vivo, mice of ddY strain. Here is the method:
Test 2: ANALGESIC EFFECT BY TAIL PRESSURE METHOD (Keijiro Takagi et al., Yakugaku Zasshi, 78, 553 ([…])) Ten mice of ddY strain weighing 18-24 g and showing pain threshold of 50-80 mmHg were used in testing each compound. The pain threshold was measured at 30, 60, 90 and 120 minutes after oral administration of the test compounds and positive analgesic response was recorded when the pain threshold was two or more times higher than pre-administration. ED50 values were calculated from the numbers of positive mice.

A short description of series [4]: Anti-inflammatory effect by carrageenin edema method. It counts as in vivo, male rats of Wistar strain. To be noted: rats; for Ratio of antiedematous action (100 mg/kg test compound/100 mg/kg phenylbutazone): ratio of inhibition % at 100 mg/kg oral, values marked * in the anti-inflammatory column; for ED50: Rattus norvegicus, oral, carrageenin edema, foot volume at 3 hours, read-out: Anti-inflammatory action (ED50). How it is done:
Test 4: ANTI-INFLAMMATORY EFFECT BY CARRAGEENIN EDEMA METHOD (Winter et al., Proc. Soc. Exp. Biol. Med., 111, 544 (1962)) Six male rats of Wistar strain weighing 110-120 g were used in testing each compound. […] ED50 values were calculated from the inhibition percent of foot volume, and the ratios of anti-edematous action of test compounds were calculated by the formula; (the inhibition % of 100 mg/kg test compounds)/(the inhibition % of 100 mg/kg phenylbutazone).
A general note: Carrageenan injected into the paw causes an acute inflammation.

The nature of a further series: in vivo. Conditions: rat, po. Further details: species or system male rats of Wistar strain. Here is the method:
Test 5: ULCERATION IN STOMACH (Brodie et al., Gastroenterology, 56, 206 (1969))
Ten male rats of Wistar strain weighing 190-200 g were used for each dose. Rats were deprived of food for 24 hours before experiments. Test compounds were administered orally and 18 hours later the rats were sacrificed, thereafter the area of each gastric lesion was measured and summed under dissecting microscope (×9). UD50 values were calculated from the gastric lesion area.

Consider `Cc1c(N(C)C)c(=O)n(-c2ccccc2)n1C` [Aminopyrin, reference compound], for which the results for the ED50 in series [1], in series [2] and in series [3] were 38 mg/kg, 225 mg/kg and 98 mg/kg, respectively.
As for `Cn1c2ccccc2c2oc(C(=O)NCCCN3CCCCC3)cc21` [Compound No. 2, 4-methyl-furo[3,2-b]indole-2-(N-piperidinopropyl)carboxamide], the ED50 was 36 mg/kg in series [1], 115 mg/kg in series [2] and 68 mg/kg in series [3]. Also, the “Ratio of antiedematous action (100 mg/kg test compound/100 mg/kg phenylbutazone)” value (“Ratio of antiedematous action” for short) in series [4] was 0.82.
Consider `O=C(NCCCN1CCCCC1)c1cc2[nH]c3cc(Cl)ccc3c2o1` [Compound No. 5, 6-chloro-furo[3,2-b]indole-2-(N-piperidinopropyl)carboxamide], for which the ED50 stood at 64.2 mg/kg in series [1], 100 mg/kg in series [2] and 80 mg/kg in series [3]. In the series “in vivo”, this compound had a TD50 at 18 h of 400 mg/kg. Further, the “Ratio of antiedematous action” value in series [4] was determined as 0.73.
As for `Cn1c2cc(Cl)ccc2c2oc(C(=O)NCCCN3CCCCC3)cc21` [Compound No. 6, 6-chloro-4-methyl-furo[3,2-b]indole-2-(N-piperidinopropyl)carboxamide], the results for the ED50 in series [1], in series [2] and in series [3] were 29.5 mg/kg, 59 mg/kg and 50 mg/kg, respectively. Further, the “Ratio of antiedematous action” value in series [4] worked out at 1.29.
For `CCn1c2cc(Cl)ccc2c2oc(C(=O)NCCCN3CCCCC3)cc21` [Compound No. 7, 6-chloro-4-ethyl-furo[3,2-b]indole-2-(N-piperidinopropyl)carboxamide], the ED50 was found to be 56.4 mg/kg in series [1], 31 mg/kg in series [2] and 41.8 mg/kg in series [3]. Further, the “Ratio of antiedematous action” value in series [4] came to 1.45.
Consider `CC(C)n1c2cc(Cl)ccc2c2oc(C(=O)NCCCN3CCCCC3)cc21` [Compound No. 8, 6-chloro-4-isopropyl-furo[3,2-b]indole-2-(N-piperidinopropyl)carboxamide], for which the figures for the ED50 in series [1], in series [2] and in series [3] were 68.4 mg/kg, 100 mg/kg and 87 mg/kg, respectively. The “Ratio of antiedematous action” value in series [4] was 0.56.
With `Cn1c2cc(C(F)(F)F)ccc2c2oc(C(=O)NCCCN3CCCCC3)cc21` [Compound No. 10, 4-methyl-6-trifluoromethyl-furo[3,2-b]indole-2-(N-piperidinopropyl)carboxamide], the ED50 amounted to 32.5 mg/kg in series [1], 45.4 mg/kg in series [4], 49 mg/kg in series [2] and 38 mg/kg in series [3]. The TD50 at 18 h in the series “in vivo” is greater than 200 mg/kg.
Regarding `CCn1c2cc(C(F)(F)F)ccc2c2oc(C(=O)NCCCN3CCCCC3)cc21` [Compound No. 11, 4-ethyl-6-trifluoromethyl-furo[3,2-b]indole-2-(N-piperidinopropyl)carboxamide], the ED50 in series [1] came out at 30 mg/kg; in series [2], 50 mg/kg; in series [3] it was 41 mg/kg. Also, the “Ratio of antiedematous action” value in series [4] is recorded as 1.29.
Take `CC(C)n1c2cc(C(F)(F)F)ccc2c2oc(C(=O)NCCCN3CCCCC3)cc21` [Compound No. 12, 4-isopropyl-6-trifluoromethyl-furo[3,2-b]indole-2-(N-piperidinopropyl)carbonxamide]: the ED50 was 68.3 mg/kg in series [1], 300 mg/kg in series [2] and 93 mg/kg in series [3]. The same compound returned a TD50 at 18 h in the series “in vivo” of 351 mg/kg. The “Ratio of antiedematous action” value in series [4] is 2.19.
Turning to `CCn1c2cc(F)ccc2c2oc(C(=O)NCCCN3CCCCC3)cc21` [Compound No. 13, 4-ethyl-6-fluoro-furo[3,2-b]indole-2-(N-piperidinopropyl)carboxamide], the ED50 was 87.5 mg/kg in series [1], 79.9 mg/kg in series [2] and 90.8 mg/kg in series [3]. In addition, in series [4], the “Ratio of antiedematous action” value stood at 0.84.
As to `CCCn1c2cc(OC)ccc2c2oc(C(=O)NCCCN3CCCCC3)cc21` [Compound No. 14, 6-methoxy-4-n-propyl-furo[3,2-b]-indole-2-(N-piperidinopropyl)carboxamide], the ED50 in series [1] is 81.2 mg/kg; in series [2] it was greater than 100 mg/kg; in series [3], 84.6 mg/kg. Besides, the “Ratio of antiedematous action” value in series [4] came out at 0.92.
The corresponding values for `CCCn1c2cc(C)ccc2c2oc(C(=O)NCCCN3CCCCC3)cc21` [Compound No. 15, 6-methyl-4-n-propyl-furo[3,2-b]indole-2-(N-piperidinopropyl)carboxamide] are 91 mg/kg, 87.6 mg/kg, 79.2 mg/kg and 0.78.
Consider `CC(C)Cc1ccc(C(C)C(=O)O)cc1` (centres unmarked) [Ibuprofen, reference compound], for which the median effective dose (ED50) in series [1] was 195 mg/kg; in series [4], 66.5 mg/kg; in series [2] it was greater than 300 mg/kg; in series [3] it was 324 mg/kg. Besides, in the series “in vivo”, the TD50 at 18 h stood at 278 mg/kg.
For `CCCCC1C(=O)N(c2ccccc2)N(c2ccccc2)C1=O` [Phenylbutazone, reference compound] the same measures were 123 mg/kg, 110 mg/kg, greater than 300 mg/kg, greater than 300 mg/kg and 145 mg/kg.
For `O=C(Cn1c(=O)sc2ccc(Cl)cc21)N1CCN(CCO)CC1` [Tiaramide HCl, reference compound] the same measures were 66 mg/kg, 84.3 mg/kg, 93 mg/kg, 110 mg/kg and greater than 200 mg/kg.

What is called ED50 is the dose that gives a 50% effect, or the effect in half of the subjects.
